Read-outs that look alike come from different tables or passages of the source.
Assays:
NDM-1 = NDM-1 (Klebsiella pneumoniae, UniProt C7C422); assay: biochemical; type: biochemical; conditions: read-out: NDM-1 IC50
IMP-1 = IMP-1 (Serratia marcescens, UniProt P52699); assay: biochemical; type: biochemical; conditions: read-out: IMP-1 IC50
VIM-1 = VIM-1 (Pseudomonas aeruginosa (strain ATCC 15692 / DSM 22644 / CIP 104116 / JCM 14847 / LMG 12228 / 1C / PRS 101 / PAO1), UniProt A0A0F7KYQ8); assay: Enzyme activity: determination of IC50, fluorescence assay with CCF2-FA substrate (VIM-1); type: biochemical
[1] = test system: Escherichia coli expressing NDM-1 (CLB30016); assay: Antibiotic potentiation activity: synergistic concentration (MITC95) with imipenem, OD600 growth; type: cell-based; conditions: for Escherichia coli expressing NDM-1 (CLB 30016) MITC95: concentration giving 95% inhibition of bacterial growth
Outline: (§1)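 Overnight colonies (35 °C) were suspended in saline, diluted 1:100 into 1.1× CAMHB, and exposed to test compound with imipenem at 4 μg/ml (optionally 1 μg/ml) in assay. After 22–24 h at 35 °C, growth was read by absorbance.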

[2] = test system: Klebsiella pneumoniae expressing VIM-1 (IHMA599644); assay: as above; type: cell-based; conditions: for Klebsiella pneumoniae expressing VIM-1 (IHMA 599644) MITC95: concentration giving 95% inhibition of bacterial growth
Outline: as §1

[3] = test system: Serratia marcescens expressing IMP-1 (CL5741); assay: as above; type: cell-based; conditions: for Serratia marcescens expressing IMP-1 (CL5741) MITC95: concentration giving 95% inhibition of bacterial growth
Outline: as §1

[4] = NDM-1 enzyme, CCF2-FA substrate
[5] = IMP-1 enzyme, CCF2-FA substrate
[6] = VIM-1 enzyme, CCF2-FA substrate, read-out: VIM-1 IC50
[7] = (CLB30016, NDM-1), 95% growth inhibition
[8] = Klebsiella pneumoniae IHMA599644 (VIM-1), 95% growth inhibition
[9] = Serratia marcescens CL5741 (IMP-1), 95% growth inhibition
[10] = NDM-1 enzyme, CCF2-FA fluorescence assay
[11] = IMP-1 enzyme, CCF2-FA fluorescence assay
[12] = VIM-1 enzyme, CCF2-FA fluorescence assay, read-out: VIM-1 IC50
[13] = Escherichia coli expressing NDM-1 (CLB30016), 95% growth inhibition
[14] = Klebsiella pneumoniae expressing VIM-1 (IHMA599644), 95% growth inhibition
[15] = Serratia marcescens expressing IMP-1 (CL5741), 95% growth inhibition
[16] = fluorescence assay with CCF2-FA substrate
[17] = fluorescence assay with CCF2-FA substrate, read-out: VIM-1 IC50
[18] = CLB30016 (NDM-1), 95% inhibition of bacterial growth
[19] = IHMA599644 (VIM-1), 95% inhibition of bacterial growth
[20] = CL5741 (IMP-1), 95% inhibition of bacterial growth

IMP-1, sequence (P52699 whole entry, looked up): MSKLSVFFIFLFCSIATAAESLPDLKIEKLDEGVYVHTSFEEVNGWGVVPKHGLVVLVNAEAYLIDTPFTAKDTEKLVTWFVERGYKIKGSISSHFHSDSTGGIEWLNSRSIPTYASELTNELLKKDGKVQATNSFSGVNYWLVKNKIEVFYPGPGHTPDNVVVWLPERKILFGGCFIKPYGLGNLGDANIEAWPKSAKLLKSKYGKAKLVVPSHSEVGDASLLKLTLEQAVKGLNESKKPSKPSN
NDM-1, sequence (C7C422 whole entry, looked up, species assumed): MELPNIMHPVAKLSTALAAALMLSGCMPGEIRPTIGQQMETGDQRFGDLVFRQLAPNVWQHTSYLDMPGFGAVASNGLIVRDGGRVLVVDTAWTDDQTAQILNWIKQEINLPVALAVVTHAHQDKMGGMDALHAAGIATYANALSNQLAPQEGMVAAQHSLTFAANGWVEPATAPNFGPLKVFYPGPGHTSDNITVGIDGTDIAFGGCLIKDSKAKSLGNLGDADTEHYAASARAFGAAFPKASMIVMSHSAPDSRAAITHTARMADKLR

NS(=O)(=O)c1c(C[C@H]2CC[C@H](N)CC2)ccc(-c2ccc(C3CCNC3)cc2)c1-c1nn[nH]n1 (stereo partly drawn) [Example 582, 4-(((1r,4r)-4-aminocyclohexyl)methyl)-4′-(pyrrolidin-3-yl)-2-(2H-tetrazol-5-yl)-[1,1′-biphenyl]-3-sulfonamide]
IC50 (NDM-1; [4]): 3.99 nM | IC50 (IMP-1; [5]): 17.4 nM | IC50 (VIM-1; [6]): 1.57 nM | Escherichia coli MITC95 [1, 7]: 0.7813 µM | Klebsiella pneumoniae MITC95 [2, 8]: 1.563 µM | Serratia marcescens MITC95 [3, 9]: 1.563 µM

NS(=O)(=O)c1c(CC2CCN(CC3CNC3)CC2)ccc(-c2ccc(C3CCNCC3)cc2)c1-c1nn[nH]n1 [Example 471, 4-((1-(azetidin-3-ylmethyl)piperidin-4-yl)methyl)-4′-(piperidin-4-yl)-2-(2H-tetrazol-5-yl)-[1,1′-biphenyl]-3-sulfonamide]
IC50 (NDM-1; [10]): 2.72 nM | IC50 (IMP-1; [11]): 8.68 nM | IC50 (VIM-1; [12]): 2.05 nM | Escherichia coli MITC95 [1, 13]: 0.7813 µM | Klebsiella pneumoniae MITC95 [2, 14]: 1.563 µM | Serratia marcescens MITC95 [3, 15]: 1.563 µM

NCCC1CCN(c2ccc(C(F)(F)F)c(S(N)(=O)=O)c2-c2nnn[nH]2)CC1 [Example 755, 3-[4-(2-aminoethyl)piperidin-1-yl]-2-(1H-tetrazol-5-yl)-6-(trifluoromethyl) benzenesulfonamide]
IC50 (NDM-1; [16]): 13.9 nM | IC50 (IMP-1; [16]): 22.1 nM | IC50 (VIM-1; [17]): 0.191 nM | Escherichia coli MITC95 [1, 18]: 6.25 µM | Klebsiella pneumoniae MITC95 [2, 19]: 3.125 µM | Serratia marcescens MITC95 [3, 20]: 6.25 µM

CC(C)c1ccc(C(F)(F)F)c(S(N)(=O)=O)c1-c1nnn[nH]1 [Example 488, 3-isopropyl-2-(1H-tetrazol-5-yl)-6-(trifluoromethyl)benzenesulfonamide]
IC50 (NDM-1; [10]): 7.9 nM | IC50 (IMP-1; [11]): 18.8 nM | IC50 (VIM-1; [12]): 3.44 nM | Escherichia coli MITC95 [1, 13]: 1.563 µM | Klebsiella pneumoniae MITC95 [2, 14]: 4.688 µM | Serratia marcescens MITC95 [3, 15]: 0.7813 µM

N=C(N)N1CCC([C@H]2CC[C@H](c3ccc(C(F)(F)F)c(S(N)(=O)=O)c3-c3nnn[nH]3)CC2)CC1 [Example 825, 4-[4-[3-sulfamoyl-2-(1H-tetrazol-5-yl)-4-(trifluoromethyl)phenyl]cyclohexyl] piperidine-1-carboxamidine]
IC50 (NDM-1; [16]): 0.157 nM | IC50 (IMP-1; [16]): 0.499 nM | IC50 (VIM-1; [17]): 0.0805 nM | Escherichia coli MITC95 [1, 18]: 0.7813 µM | Klebsiella pneumoniae MITC95 [2, 19]: 3.125 µM | Serratia marcescens MITC95 [3, 20]: 1.563 µM

NC1CCC(c2ccc(CCC3CCNCC3)c(S(N)(=O)=O)c2-c2nn[nH]n2)CC1 (stereo not drawn) [Example 838, 3-(4-aminocyclohexyl)-6-[2-(4-piperidyl)ethyl]-2-(2H-tetrazol-5-yl)benzenesulfonamide]
IC50 (NDM-1; [16]): 68.3 nM | IC50 (IMP-1; [16]): 1680 nM | IC50 (VIM-1; [17]): 61.2 nM | Escherichia coli MITC95 [1, 18]: 3.125 µM | Klebsiella pneumoniae MITC95 [2, 19]: 6.25 µM | Serratia marcescens MITC95 [3, 20]: 12.5 µM

NS(=O)(=O)c1cccc(-c2cc(F)cc(F)c2)c1-c1nnn[nH]1 [Example 129, 3′,5′-difluoro-2-(1H-tetrazol-5-yl)-[1,1′-biphenyl]-3-sulfonamide]
IC50 (NDM-1; [16]): 3.71 nM | IC50 (IMP-1; [16]): 176 nM | IC50 (VIM-1; VIM-1 IC50, fluorescence assay with CCF2-FA substrate): 37.9 nM | Escherichia coli expressing NDM-1 (CLB 30016) MITC95 [1]: 0.7813 µM | Klebsiella pneumoniae expressing VIM-1 (IHMA 599644) MITC95 [2]: 12.5 µM | Serratia marcescens expressing IMP-1 (CL5741) MITC95 [3]: 9.375 µM

Cc1nc(N)ccc1Cc1cccc(S(N)(=O)=O)c1-c1nn[nH]n1 [Example 572, 3-((6-amino-2-methylpyridin-3-yl)methyl)-2-(2H-tetrazol-5-yl)benzenesulfonamide]
IC50 (NDM-1; [4]): 14.7 nM | IC50 (IMP-1; [5]): 701 nM | IC50 (VIM-1; [6]): 8.98 nM | Escherichia coli MITC95 [1, 7]: 0.5859 µM | Klebsiella pneumoniae MITC95 [2, 8]: 6.25 µM | Serratia marcescens MITC95 [3, 9]: 25 µM

N=C(N)N[C@H]1CC[C@H](c2ccc(C(F)(F)F)c(S(N)(=O)=O)c2-c2nnn[nH]2)CC1 [Example 823, 1-[4-[3-sulfamoyl-2-(1H-tetrazol-5-yl)-4-(trifluoromethyl)phenyl]cyclohexyl] guanidine]
IC50 (NDM-1; [16]): 17.5 nM | IC50 (IMP-1; [16]): 25.4 nM | IC50 (VIM-1; [17]): 0.666 nM | Escherichia coli MITC95 [1, 18]: 1.172 µM | Klebsiella pneumoniae MITC95 [2, 19]: 1.172 µM | Serratia marcescens MITC95 [3, 20]: 0.3906 µM

Nc1ncc(-c2ccc(C(F)(F)F)c(S(N)(=O)=O)c2-c2nnn[nH]2)cn1 [Example 475, 3-(2-aminopyrimidin-5-yl)-2-(1H-tetrazol-5-yl)-6-(trifluoromethyl)benzenesulfonamide]
IC50 (NDM-1; [10]): 5.13 nM | IC50 (IMP-1; [11]): 13.7 nM | IC50 (VIM-1; VIM-1 IC50, VIM-1 enzyme, CCF2-FA fluorescence assay): 1.92 nM | Escherichia coli MITC95 [1, 13]: 0.7813 µM | Klebsiella pneumoniae MITC95 [2, 14]: 3.125 µM | Serratia marcescens MITC95 [3, 15]: 0.7813 µM

NS(=O)(=O)c1cccc(-c2ccc(C3=CCNC3)cc2)c1-c1nn[nH]n1 [Example 285, 4′-(2,5-dihydro-1H-pyrrol-3-yl)-2-(2H-tetrazol-5-yl)-[1,1′-biphenyl]-3-sulfonamide]
IC50 (NDM-1; [10]): 2.83 nM | IC50 (IMP-1; [11]): 25.1 nM | IC50 (VIM-1; [12]): 18 nM | Escherichia coli MITC95 [1, 13]: 0.3906 µM | Klebsiella pneumoniae MITC95 [2, 14]: 3.125 µM | Serratia marcescens MITC95 [3, 15]: 0.7813 µM

NC[C@H](N)C(=O)NC1CCC(c2ccc(C(F)(F)F)c(S(N)(=O)=O)c2-c2nnn[nH]2)CC1 (stereo partly drawn) [Example 837, (S)-2,3-diamino-N-((1r,4S)-4-(3-sulfamoyl-2-(1H-tetrazol-5-yl)-4-(trifluoromethyl)phenyl)cyclohexyl)propanamide]
IC50 (NDM-1; [16]): 8.68 nM | IC50 (IMP-1; [16]): 21.2 nM | IC50 (VIM-1; [17]): 2.9 nM | Escherichia coli MITC95 [1, 18]: 1.563 µM | Klebsiella pneumoniae MITC95 [2, 19]: 6.25 µM | Serratia marcescens MITC95 [3, 20]: 0.5859 µM

NS(=O)(=O)c1nccc(N2CCCC(c3ccccn3)C2)c1-c1nnn[nH]1 (stereo not drawn) [Example 220, 4-(3-pyridin-2-ylpiperidin-1-yl)-3-(1H-tetrazol-5-yl)pyridine-2-sulfonamide]
IC50 (NDM-1; [16]): 22.8 nM | IC50 (IMP-1; [16]): 2390 nM | IC50 (VIM-1; [17]): 234 nM | Escherichia coli expressing NDM-1 (CLB 30016) MITC95 [1]: 12.5 µM | Klebsiella pneumoniae expressing VIM-1 (IHMA 599644) MITC95 [2]: >200 µM | Serratia marcescens expressing IMP-1 (CL5741) MITC95 [3]: 75 µM

Nc1[nH]nc2ccc(-c3cccc(S(N)(=O)=O)c3-c3nnn[nH]3)cc12 [Example 132, 3-(3-amino-2H-indazol-5-yl)-2-(1H-tetrazol-5-yl)benzenesulfonamide]
IC50 (NDM-1; [16]): 2.73 nM | IC50 (IMP-1; [16]): 755 nM | IC50 (VIM-1; [17]): 26.7 nM | Escherichia coli expressing NDM-1 (CLB 30016) MITC95 [1]: 1.172 µM | Klebsiella pneumoniae expressing VIM-1 (IHMA 599644) MITC95 [2]: 6.25 µM | Serratia marcescens expressing IMP-1 (CL5741) MITC95 [3]: 12.5 µM

NS(=O)(=O)c1c(C(F)(F)F)ccc(-c2ccc(C3CN(C4CCNC4)C3)cc2)c1-c1nnn[nH]1 (stereo not drawn) [Example 801, 4′-(1-pyrrolidin-3-ylazetidin-3-yl)-2-(1H-tetrazol-5-yl)-4-(trifluoromethyl)biphenyl-3-sulfonamide]
IC50 (NDM-1; [16]): 2.22 nM | IC50 (IMP-1; [16]): 2.8 nM | IC50 (VIM-1; [17]): 9.45 nM | Escherichia coli MITC95 [1, 18]: 3.125 µM | Klebsiella pneumoniae MITC95 [2, 19]: 100 µM | Serratia marcescens MITC95 [3, 20]: 6.25 µM

N=C(N)N1CCC(Cc2ccc(-c3ccc(C4CNC4)cc3)c(-c3nn[nH]n3)c2S(N)(=O)=O)CC1 [Example 604, 4-[[4-[4-(azetidin-3-yl)phenyl]-2-sulfamoyl-3-(2H-tetrazol-5-yl)phenyl]methyl]piperidine-1-carboxamidine]
IC50 (NDM-1; [4]): 3.31 nM | IC50 (IMP-1; [5]): 41.7 nM | IC50 (VIM-1; [6]): 0.899 nM | Escherichia coli MITC95 [1, 7]: 1.563 µM | Klebsiella pneumoniae MITC95 [2, 8]: 1.563 µM | Serratia marcescens MITC95 [3, 9]: 6.25 µM
